Measured values reported in ChEMBL document CHEMBL1212697, “High-content single-cell drug screening with phosphospecific flow cytometry” (Nat Chem Biol, 2008).
pIC50: −log10 of the molar value. Values belong to the compound of their own block, whether it stands above or below them.

Experiments:
[1] = Inhibition of JAK-mediated IL10-induced Stat3 phosphorylation in BALB/c mouse B cells by Phospho-Flow cytometry; assay type: cell-based
[2] = Inhibition of JAK-mediated IL7-induced Stat5 phosphorylation in BALB/c mouse CD11b-int macrophages by Phospho-Flow cytometry
[3] = Inhibition of JAK-mediated IL4-induced Stat6 phosphorylation in BALB/c mouse CD4+ T cells by Phospho-Flow cytometry; assay type: cell-based; conditions: T-cell
[4] = Inhibition of JAK-mediated IL10-induced Stat3 phosphorylation in BALB/c mouse CD11b-hi neutrophils by Phospho-Flow cytometry
[5] = Inhibition of JAK-mediated IL6-induced Stat1 phosphorylation in BALB/c mouse CD11b-int macrophages by Phospho-Flow cytometry
[6] = Inhibition of JAK-mediated interferon-gamma-induced Stat1 phosphorylation in BALB/c mouse CD11b-int macrophages by Phospho-Flow cytometry
[7] = Inhibition of JAK-mediated IL6-induced Stat3 phosphorylation in BALB/c mouse CD11b-hi neutrophils by Phospho-Flow cytometry
[8] = Inhibition of JAK-mediated IL6-induced Stat3 phosphorylation in BALB/c mouse CD11b-int macrophages by Phospho-Flow cytometry
[9] = Inhibition of JAK-mediated IL10-induced Stat3 phosphorylation in BALB/c mouse CD11b-int macrophages by Phospho-Flow cytometry
[10] = Inhibition of JAK-mediated IL15-induced Stat5 phosphorylation in BALB/c mouse CD8+ T cells by Phospho-Flow cytometry; assay type: cell-based; conditions: T-cell
[11] = Inhibition of JAK-mediated IL7-induced Stat5 phosphorylation in BALB/c mouse B cells by Phospho-Flow cytometry; assay type: cell-based
[12] = Inhibition of JAK-mediated IL4-induced Stat5 phosphorylation in BALB/c mouse CD11b-int macrophages by Phospho-Flow cytometry
[13] = Inhibition of JAK-mediated IL15-induced Stat5 phosphorylation in BALB/c mouse CD11b-hi neutrophils by Phospho-Flow cytometry
[14] = Inhibition of JAK-mediated IL6-induced Stat1 phosphorylation in BALB/c mouse CD4+ T cells by Phospho-Flow cytometry; assay type: cell-based; conditions: T-cell
[15] = Inhibition of JAK-mediated IL10-induced Stat3 phosphorylation in BALB/c mouse CD4+ T cells by Phospho-Flow cytometry; assay type: cell-based; conditions: T-cell
[16] = Inhibition of JAK-mediated IL6-induced Stat1 phosphorylation in BALB/c mouse CD11b-hi neutrophils by Phospho-Flow cytometry
[17] = Inhibition of JAK-mediated IL15-induced Stat5 phosphorylation in BALB/c mouse CD4+ T cells by Phospho-Flow cytometry; assay type: cell-based; conditions: T-cell
[18] = Inhibition of JAK-mediated IL7-induced Stat5 phosphorylation in BALB/c mouse CD4+ T cells by Phospho-Flow cytometry; assay type: cell-based; conditions: T-cell
[19] = Inhibition of JAK-mediated interferon-gamma-induced Stat1 phosphorylation in BALB/c mouse B cells by Phospho-Flow cytometry; assay type: cell-based
[20] = Inhibition of JAK-mediated IL4-induced Stat5 phosphorylation in BALB/c mouse CD4+ T cells by Phospho-Flow cytometry; assay type: cell-based; conditions: T-cell
[21] = Inhibition of JAK-mediated IL6-induced Stat3 phosphorylation in BALB/c mouse CD8+ T cells by Phospho-Flow cytometry; assay type: cell-based; conditions: T-cell
[22] = Inhibition of JAK-mediated IL6-induced Stat1 phosphorylation in BALB/c mouse CD8+ T cells by Phospho-Flow cytometry; assay type: cell-based; conditions: T-cell
[23] = Inhibition of JAK-mediated IL4-induced Stat5 phosphorylation in BALB/c mouse B cells by Phospho-Flow cytometry; assay type: cell-based
[24] = Inhibition of JAK-mediated IL10-induced Stat3 phosphorylation in BALB/c mouse CD8+ T cells by Phospho-Flow cytometry; assay type: cell-based; conditions: T-cell
[25] = Inhibition of JAK-mediated IL15-induced Stat5 phosphorylation in BALB/c mouse CD11b-int macrophages by Phospho-Flow cytometry
[26] = Inhibition of JAK-mediated IL6-induced Stat3 phosphorylation in BALB/c mouse CD4+ T cells by Phospho-Flow cytometry; assay type: cell-based; conditions: T-cell
[27] = Inhibition of JAK-mediated interferon-gamma-induced Stat1 phosphorylation in BALB/c mouse CD4+ T cells by Phospho-Flow cytometry; assay type: cell-based; conditions: T-cell
[28] = Inhibition of JAK-mediated IL7-induced Stat5 phosphorylation in BALB/c mouse CD8+ T cells by Phospho-Flow cytometry; assay type: cell-based; conditions: T-cell
[29] = Inhibition of JAK-mediated IL4-induced Stat6 phosphorylation in BALB/c mouse CD11b-int macrophages by Phospho-Flow cytometry
[30] = Inhibition of JAK-mediated interferon-gamma-induced Stat1 phosphorylation in BALB/c mouse […] T cells by Phospho-Flow cytometry; assay type: cell-based; conditions: T-cell
[31] = Inhibition of JAK-mediated IL4-induced Stat6 phosphorylation in BALB/c mouse CD8+ T cells by Phospho-Flow cytometry; assay type: cell-based; conditions: T-cell
[32] = Inhibition of JAK-mediated IL6-induced Stat1 phosphorylation in BALB/c mouse B cells by Phospho-Flow cytometry; assay type: cell-based
[33] = Inhibition of JAK-mediated IL7-induced Stat5 phosphorylation in BALB/c mouse CD11b-hi neutrophils by Phospho-Flow cytometry
[34] = Inhibition of JAK-mediated IL6-induced Stat3 phosphorylation in BALB/c mouse B cells by Phospho-Flow cytometry; assay type: cell-based
[35] = Inhibition of JAK-mediated IL15-induced Stat5 phosphorylation in BALB/c mouse B cells by Phospho-Flow cytometry; assay type: cell-based
[36] = Inhibition of JAK-mediated IL4-induced Stat5 phosphorylation in BALB/c mouse CD8+ T cells by Phospho-Flow cytometry; assay type: cell-based; conditions: T-cell
[37] = Inhibition of JAK-mediated interferon-gamma-induced Stat1 phosphorylation in BALB/c mouse CD11b-hi neutrophils by Phospho-Flow cytometry
[38] = Inhibition of JAK-mediated IL4-induced Stat5 phosphorylation in BALB/c mouse CD11b-hi neutrophils by Phospho-Flow cytometry
[39] = biological target: T1, MAP kinase p38 (Homo sapiens, UniProt O15264+Q15759+Q16539+P53778); assay: Inhibition of anisomycin-induced p38 phosphorylation in human U937 cells by Phospho-Flow cytometry at 20 uM; assay type: cell-based; conditions: U-937
[40] = biological target: T2, Janus Kinase (JAK) (Homo sapiens) (UniProt P52333+P23458+O60674+P29597); assay: Inhibition of JAK-mediated interferon-gamma-induced Stat1 phosphorylation in human U937 cells by Phospho-Flow cytometry at 20 uM; assay type: cell-based; conditions: U-937
[41] = biological target: T2, Janus Kinase (JAK) (Homo sapiens); assay: Inhibition of JAK-mediated GM-CSF-induced Stat5 phosphorylation in human U937 cells by Phospho-Flow cytometry at 20 uM; assay type: cell-based; conditions: U-937
[42] = biological target: T1, MAP kinase p38; assay: Inhibition of anisomycin-induced p38 phosphorylation in human U937 cells by Phospho-Flow cytometry; assay type: cell-based; conditions: u-937

pIC50 [1]: > 4.70 | pIC50 [2]: > 4.70 | pIC50 [3]: > 4.70 | pIC50 [4]: > 4.70 | pIC50 [5]: > 4.70 | pIC50 [6]: > 4.70 | pIC50 [7]: > 4.70 | pIC50 [8]: > 4.70 | pIC50 [9]: > 4.70 | pIC50 [10]: > 4.70 | pIC50 [11]: > 4.70 | pIC50 [12]: > 4.70 | pIC50 [13]: > 4.70 | pIC50 [14]: > 4.70 | pIC50 [15]: > 4.70 | pIC50 [16]: > 4.70 | pIC50 [17]: > 4.70 | pIC50 [18]: > 4.70 | pIC50 [19]: > 4.70 | pIC50 [20]: > 4.70 | pIC50 [21]: > 4.70 | pIC50 [22]: > 4.70 | pIC50 [23]: > 4.70 | pIC50 [24]: > 4.70 | pIC50 [25]: > 4.70 | pIC50 [26]: > 4.70 | pIC50 [27]: > 4.70 | pIC50 [28]: > 4.70 | pIC50 [29]: > 4.70 | pIC50 [30]: > 4.70 | pIC50 [31]: > 4.70 | pIC50 [32]: > 4.70 | pIC50 [33]: > 4.70 | pIC50 [34]: > 4.70 | pIC50 [35]: > 4.70 | pIC50 [36]: > 4.70 | pIC50 [37]: > 4.70 | pIC50 [38]: > 4.70
SMILES: C=CC(=O)c1ccc2ccccc2c1

SMILES: COC1=C[C@]23CCCN2CCc2cc4c(cc2[C@@H]3[C@@H]1O)OCO4 [CEPHALOTAXINE]
inhibition [39]: 25% | inhibition [40]: > 65% | inhibition [41]: 25% | IC50 [42]: 0.2 µM
